Consider two compounds from patent publication US20210093521A1, “ANTIBACTERIAL ACTIVITY BY MG COMPLEX IN DEODORANT EMULSION FOR AEROSOLS, DEODORANT INCLUDING THE SAME AND USE OF THE DEODORANT” (Henkel AG & Co. KGaA, priority 2019, published 2021).

In experiment [1] the test system is bacterial germs known to cause body odor. As to the kind of experiment: inhibition yard test, both germs tested. In kind it is cell-based, Staphylococcus epidermidis, Staphylococcus hominis. As to conditions: agent within the deodorant emulsion. From the text:
The inhibition yard test (or agar diffusion test) is used to investigate the growth-inhibiting effect of substances or mixtures of substances on the most important bacterial germs known to cause body odor. For this purpose, the pathogen-containing material is spread out on a culture medium (usually on an agar layer within a Petri dish). Filter paper discs impregnated with the mixture of active substances to be tested or with a control without an active substance are placed on the bacterial layer so that the active substances can penetrate the material and spread there. If the test substance has an antimicrobial effect, clearly visible circles, so-called inhibition yards, form around the filter paper discs due to the inhibition of the pathogen growth. These can be measured in mm diameter.
An inhibition yard test was performed with deodorant emulsions containing the following potential or actual bacterial growth inhibiting additives (the amounts are given in weight %)

For experiment [2], the system named is four bacteria that cause body odor. The experiment is described as follows: membrane test, statements in text for all tested species. In kind it is cell-based, Staphylococcus, Corynebacterium and Anaerococcus species. The conditions noted are these: 14 h, agent or formulation in deodorant emulsion.

`CCCCCCC(CCCC)C(=O)O` (stereo not drawn) [Isocarb, 2-butyloctanioc acid]: in experiment [1], the “antibacterial effect in the deodorant emulsion (inhibition zone)” value is listed as “no effect”.

With Benzalkonium chloride, in experiment [1], the “antibacterial effect in the deodorant emulsion (inhibition zone)” value was “good effect even in small quantities”. Further, the “antibacterial effectiveness in the membrane test” value in experiment [2] was “good effect”.
